Reference: patent US12383699B2, “Catheter attachment made of plastic that contains molecularly dispersed polychlorinated phenoxyphenol (PCPP)” (priority 2017, dated 2025)

Tested on: fibroblasts
Test: fibroblast cytotoxicity test (MTT)
Format: cell-based
Source text: In FIG. 3, the following meanings apply: Mic: miconazole, Tri: trimetoprim, Rif: rifampicin, Irg: Irgasan, Gen: gentamicin, Fus: fusidic acid, Oct: octenidine, Ben: benzylpenicillin, Chl: chlorohexidine, Cli: clindamycine.

Oc1cc(Cl)ccc1Oc1ccc(Cl)cc1Cl [Irgasan, 5-chloro-2-(2,4-dichlorophenoxy)phenol]
maximum concentration up to which fibroblasts are hardly inhibited and the substance is non-toxic (FIG. 3, MTT): ≤ 10 µg/mL
adverse affection in fibroblast-cytotoxicity test (Irgasan release (cm^2) of 2-4 mg/I, release rates for inhibition zones of about 20 mm): only a minimum adverse affection
